How the values were obtained:
Format in all cases: cell-based
[1] = target: T1, BRAF G466V (Homo sapiens, UniProt P15056, G466V); assay: BRAF HiBiT degradation assay, C-terminal HiBiT-tagged BRAF G466V overexpressed in HCT-116 BRAF−/− cells (clone 8), Nano-Glo HiBiT Lytic assay
T1 construct: Horizon Discovery (HCT-116 BRAF−/− cells); host or cells: HCT-116 BRAF−/− cells, clone 8, lentiviral transduction
In short: (§1)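 First, the stable HiBiT-tagged cells were plated and incubated for 24 h. Next, compound was added in duplicate as an 11-point series with a 1 μM top concentration. Lytic detection followed, with DMSO-treated parental cells used for background. Finally, DC50 and Obs. Dmax relative to DMSO were derived from the % protein remaining curves.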

[2] = target: T2, BRAF V600E (Homo sapiens, UniProt P15056, V600E); assay: BRAF HiBiT degradation assay, C-terminal HiBiT-tagged BRAF V600E A375 cells (clone 1F10), Nano-Glo HiBiT Lytic assay; conditions: for Dmax: A-375
T2 construct: endogenous C-terminal HiBiT fusion tag on BRAF V600E allele; endogenous in cells; host or cells: A375 clone 1F10 (CRISPR-Cas9 knock-in of the HiBiT tag; parental A375 from ATCC)
In short: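 Degradation is measured as loss of HiBiT signal from BRAF V600E tagged at its native locus in A375 cells. Doses span 1 μM to 0.01 nM in half-log steps, in duplicate. Percent remaining is calculated against DMSO controls after subtracting untagged A375 background, and curve fitting yields DC50 and observed Dmax.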

[3] = target: T3, BRAF G469A (Homo sapiens, UniProt P15056, G469A); assay: BRAF HiBiT degradation assay, C-terminal HiBiT-tagged BRAF G469A overexpressed in HCT-116 BRAF−/− cells (clone 34), Nano-Glo HiBiT Lytic assay
T3 construct: Horizon Discovery (HCT-116 BRAF−/− cells); host or cells: HCT-116 BRAF−/− cells, clone 34, lentiviral transduction
In short: as §1

[4] = target: T4, BRAF D594G (Homo sapiens, UniProt P15056, D594G); assay: BRAF HiBiT degradation assay, C-terminal HiBiT-tagged BRAF D594G overexpressed in HCT-116 BRAF−/− cells (clone 63), Nano-Glo HiBiT Lytic assay
T4 construct: Horizon Discovery (HCT-116 BRAF−/− cells); host or cells: HCT-116 BRAF−/− cells, clone 63, lentiviral transduction
In short: as §1

[5] = BRAF G466V (Class 3), HCT-116 BRAF−/− cells, DC50 at 50% degradation
[6] = BRAF G466V (Class 3), HCT-116 BRAF−/− cells, observed Dmax relative to DMSO control
[7] = A375 (BRAF V600E, Class 1), DC50 at 50% degradation
[8] = A375 (BRAF V600E, Class 1), observed Dmax, % protein degraded relative to DMSO control
[9] = BRAF G469A (Class 2), HCT-116 BRAF−/− cells, DC50 at 50% degradation
[10] = BRAF G469A (Class 2), HCT-116 BRAF−/− cells, observed Dmax relative to DMSO control
[11] = BRAF D594G (Class 3), HCT-116 BRAF−/− cells, DC50 at 50% degradation
[12] = BRAF D594G (Class 3), HCT-116 BRAF−/− cells, observed Dmax relative to DMSO control
[13] = BRAF G466V, DC50 at 50%: fitted conc. at Y=50
[14] = HCT-116, BRAF G466V, percentage protein degraded at maximal compound effect relative to DMSO
[15] = A375 (BRAF V600E), DC50 at 50%: fitted conc. at Y=50
[16] = A375 (BRAF V600E), percentage protein degraded at maximal compound effect relative to DMSO
[17] = Class 2, BRAF G469A, DC50 at 50%: fitted conc. at Y=50
[18] = HCT-116, Class 2, BRAF G469A, percentage protein degraded at maximal compound effect relative to DMSO
[19] = BRAF D594G, DC50 at 50%: fitted conc. at Y=50
[20] = HCT-116, BRAF D594G, percentage protein degraded at maximal compound effect relative to DMSO

T1 sequence (P15056 whole entry G466V): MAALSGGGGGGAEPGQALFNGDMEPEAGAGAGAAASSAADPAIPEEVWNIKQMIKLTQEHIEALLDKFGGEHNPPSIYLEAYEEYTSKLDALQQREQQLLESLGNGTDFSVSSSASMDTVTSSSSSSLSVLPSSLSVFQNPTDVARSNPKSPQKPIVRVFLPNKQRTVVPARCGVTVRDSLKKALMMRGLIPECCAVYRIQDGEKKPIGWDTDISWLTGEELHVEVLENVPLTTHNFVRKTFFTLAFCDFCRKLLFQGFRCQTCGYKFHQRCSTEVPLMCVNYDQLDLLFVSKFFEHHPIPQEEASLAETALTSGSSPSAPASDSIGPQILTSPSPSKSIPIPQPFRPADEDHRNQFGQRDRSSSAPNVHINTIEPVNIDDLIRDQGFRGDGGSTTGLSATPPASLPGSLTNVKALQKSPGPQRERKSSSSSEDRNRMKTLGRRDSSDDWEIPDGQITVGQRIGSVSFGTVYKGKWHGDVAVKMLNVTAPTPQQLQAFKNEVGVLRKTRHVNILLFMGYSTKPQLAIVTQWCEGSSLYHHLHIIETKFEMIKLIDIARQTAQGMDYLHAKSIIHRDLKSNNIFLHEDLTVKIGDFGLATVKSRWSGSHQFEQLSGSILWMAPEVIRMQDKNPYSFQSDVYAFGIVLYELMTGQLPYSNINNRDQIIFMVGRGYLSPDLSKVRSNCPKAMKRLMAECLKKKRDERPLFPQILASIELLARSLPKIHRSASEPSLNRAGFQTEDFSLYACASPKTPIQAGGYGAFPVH
T2 sequence (P15056 whole entry V600E, the tested form may be a part): as the sequence (P15056 whole entry G466V) above, with V466G, V600E counted along it
T4 sequence (P15056 whole entry D594G): as the sequence (P15056 whole entry G466V) above, with V466G, D594G counted along it
T3 sequence (P15056 whole entry G469A): as the sequence (P15056 whole entry G466V) above, with V466G, G469A counted along it

| DC50 [1, 5] [µM] | Dmax [1, 6] [%] | DC50 [2, 7] [µM] | Dmax [2, 8] [%] | DC50 [3, 9] [µM] | Dmax [3, 10] [%] | DC50 [4, 11] [µM] | Dmax [4, 12] [%] | DC50 [1, 13] [µM] | Dmax [1, 14] [%] | DC50 [2, 15] [µM] | Dmax [2, 16] [%] | DC50 [3, 17] [µM] | Dmax [3, 18] [%] | DC50 [4, 19] [µM] | Dmax [4, 20] [%] | SMILES |
| --- | --- | --- | --- | --- | --- | --- | --- | --- | --- | --- | --- | --- | --- | --- | --- | --- |
| < 0.01 | > 70 | < 0.01 | > 70 | < 0.01 | > 70 | < 0.01 | > 70 |  |  |  |  |  |  |  |  | O=C1CCC(c2ccc(N3CCC(CN4CCN(c5ccc(-n6cc(-c7cc(C(F)F)cc(NS(=O)(=O)N8CCCC8)c7F)c(-c7ccncc7)n6)cc5)CC4)CC3)nc2)C(=O)N1 (racemic) [Compound 350, Rac-N-[5-(difluoromethyl)-3-[1-(4-{4-[(1-{5-[(3R)-2,6-dioxopiperidin-3-yl]pyridin-2-yl}piperidin-4-yl)methyl]piperazin-1-yl}phenyl)-3-(pyridin-4-yl)-1H-pyrazol-4-yl]-2-fluorophenyl]pyrrolidine-1-sulfonamide] |
| 0.01 to 0.05 | 30 to 70 | 0.01 to 0.05 | > 70 | > 0.5 | < 30 | > 0.5 | 30 to 70 |  |  |  |  |  |  |  |  | O=C1CCN(c2ccc(N3CCC(CN4CCN(c5ccc(-n6cc(-c7cc(C(F)F)cc(NS(=O)(=O)N8CCCC8)c7F)c(-c7ccncc7)n6)c(F)c5)CC4)CC3)cc2)C(=O)N1 [Compound 356, N-[5-(difluoromethyl)-3-(1-{4-[4-({1-[4-(2,4-dioxo-1,3-diazinan-1-yl)phenyl]piperidin-4-yl}methyl)piperazin-1-yl]-2-fluorophenyl}-3-(pyridin-4-yl)-1H-pyrazol-4-yl)-2-fluorophenyl]pyrrolidine-1-sulfonamide] |
|  |  |  |  |  |  |  |  | 0.05 to 0.5 | 30 to 70 | < 0.01 | > 70 | > 0.5 | 30 to 70 | 0.05 to 0.5 | 30 to 70 | CCCS(=O)(=O)Nc1cccc(-c2nc(C(C)(C)C)sc2-c2ccnc(Nc3ccc(N4CCN(C(=O)CN5CCc6cc(C7CCC(=O)NC7=O)ccc6C5)CC4)c(F)c3)n2)c1F (racemic) [Compound 51, Rac-N-(3-{2-tert-butyl-5-[2-({4-[4-(2-{6-[(3R)-2,6-dioxopiperidin-3-yl]-1,2,3,4-tetrahydroisoquinolin-2-yl}acetyl)piperazin-1-yl]-3-fluorophenyl}amino)pyrimidin-4-yl]-1,3-thiazol-4-yl}-2-fluorophenyl)propane-1-sulfonamide] |
|  |  |  |  |  |  |  |  | > 0.5 | 30 to 70 | 0.01 to 0.05 | > 70 | > 0.5 | 30 to 70 | > 0.5 | 30 to 70 | CCCS(=O)(=O)Nc1cccc(-c2nc(C(C)(C)C)sc2-c2ccnc(Nc3ccc(C4CCN(CC5CCN(c6ccc([C@H]7CCC(=O)NC7=O)cc6)CC5)CC4)cc3)n2)c1F [Compound 89, N-[3-(2-tert-butyl-5-{2-[(4-{1-[(1-{4-[(3R)-2,6-dioxopiperidin-3-yl]phenyl}piperidin-4-yl)methyl]piperidin-4-yl}phenyl)amino]pyrimidin-4-yl}-1,3-thiazol-4-yl)-2-fluorophenyl]propane-1-sulfonamide] |
| 0.01 to 0.05 | > 70 | 0.01 to 0.05 | > 70 | 0.05 to 0.5 | 30 to 70 | < 0.01 | 30 to 70 |  |  |  |  |  |  |  |  | CCN(C)S(=O)(=O)Nc1cc(Cl)cc(-c2cn(-c3ccc(N4CCN(CC5CCN(c6ccc(N7CCC(=O)NC7=O)cn6)CC5)CC4)cn3)nc2-c2ccncc2)c1F [Compound 313, 1-(6-{4-[(4-{6-[4-(5-chloro-3-{[ethyl(methyl)sulfamoyl]amino}-2-fluorophenyl)-3-(pyridin-4-yl)-1H-pyrazol-1-yl]pyridin-3-yl}piperazin-1-yl)methyl]piperidin-1-yl}pyridin-3-yl)-1,3-diazinane-2,4-dione] |
